The values that follow come from ChEMBL document CHEMBL1144819, “Antitumor agents. 261. 20(S)-protopanaxadiol and 20(s)-protopanaxatriol as antiangiogenic agents and total assignment of (1)H NMR spectra” (J Nat Prod, 2008).

The subject of experiment [1] is HUVEC. The experiment is described as follows: Antiproliferative activity against HUVEC cells after 72 hrs. The experiment is classed as functional, cell-based. The following applies: Homo sapiens.
For experiment [2], the system named is HUVEC. The experiment is described as follows: Cell viability of HUVEC cells at 20 ug/ml. In kind it is functional, Homo sapiens.

Converted amounts (≈) assume the structure as drawn.

Take `CC(C)=CCC[C@](C)(O)[C@H]1CC[C@]2(C)[C@@H]1[C@H](O)C[C@@H]1[C@@]3(C)CC[C@H](O)C(C)(C)[C@@H]3[C@@H](O)C[C@]12C`: the EC50 (as a rule, the concentration at which the effect is half-maximal) in experiment [1] turned out to be 6.64 mg/L (≈ 13.9 µM). The Activity in experiment [2] came to 16.5%.

`CC(C)=CCC[C@](C)(O)[C@H]1CC[C@]2(C)[C@@H]1[C@H](O)C[C@@H]1[C@@]3(C)CC[C@H](O)C(C)(C)[C@@H]3CC[C@]12C` registered an EC50 in experiment [1] of 2.16 mg/L (≈ 4.69 µM). For the same compound, the Activity in experiment [2] is 16.5%.
